Laboratory results published in PubChem BioAssay (NCI).
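Interpolation was linear, between the two tested concentrations surrounding the appropriate level; five concentrations were tested over 48 hours in 96-well plates. GI50 = concentration required for 50% inhibition of growth. The concentration for full growth arrest is given as TGI.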

What was measured:
Assay in all cases: growth of human tumour cells (NCI), 48 h
A549 NSCLC = tested on: A549 NSCLC
SW-620 colon = tested on: SW-620 colon
NCI-H522 lung = tested on: NCI-H522 lung
RPMI-8226 leukemia = tested on: RPMI-8226 leukemia
HOP-92 NSCLC = tested on: HOP-92 NSCLC
HCT-116 colon = tested on: HCT-116 colon
SF-268 CNS = tested on: SF-268 CNS
SN12C renal = tested on: SN12C renal
RXF 393 renal = tested on: RXF 393 renal
NCI/ADR-RES ovarian = tested on: NCI/ADR-RES ovarian

N.N.N.N.N.[Co+3].[I-].[N-]=[N+]=[N-]
GI50 (A549 NSCLC): > 100 µM
TGI (A549 NSCLC): > 100 µM
GI50 (SW-620 colon): > 100 µM
TGI (SW-620 colon): > 100 µM
GI50 (NCI-H522 lung): > 100 µM
TGI (NCI-H522 lung): > 100 µM
GI50 (RPMI-8226 leukemia): 35.5 µM
TGI (RPMI-8226 leukemia): > 100 µM
GI50 (HOP-92 NSCLC): > 100 µM
TGI (HOP-92 NSCLC): > 100 µM
GI50 (HCT-116 colon): > 100 µM
TGI (HCT-116 colon): > 100 µM
GI50 (SF-268 CNS): > 100 µM
TGI (SF-268 CNS): > 100 µM
GI50 (SN12C renal): > 100 µM
TGI (SN12C renal): > 100 µM

O=C1C2Nc3ccccc3SC2C(=O)N1c1ccc(Br)cc1 (stereo not drawn)
TGI (A549 NSCLC): > 100 µM
TGI (SW-620 colon): > 100 µM
TGI (NCI-H522 lung): 89.8 µM
TGI (RPMI-8226 leukemia): > 100 µM
TGI (HOP-92 NSCLC): 33.2 µM
TGI (SF-268 CNS): > 100 µM
TGI (RXF 393 renal): 61.8 µM
TGI (SN12C renal): > 100 µM

COc1ccc2c(c1OC)C[C@@H]1c3c(cc4c(c3-2)OCO4)CCN1C
TGI (A549 NSCLC): > 100 µM
TGI (SW-620 colon): > 100 µM
TGI (NCI-H522 lung): 62.9 µM
TGI (RPMI-8226 leukemia): 42.9 µM
TGI (HOP-92 NSCLC): 68.1 µM
TGI (HCT-116 colon): 47.3 µM
TGI (SF-268 CNS): > 100 µM
TGI (RXF 393 renal): 66.4 µM
TGI (SN12C renal): > 100 µM

CN1c2ccccc2N(C(=O)c2ccc([N+](=O)[O-])cc2)C(CC(=O)O)c2cccn21 (stereo not drawn)
TGI (A549 NSCLC): > 100 µM
TGI (SW-620 colon): > 100 µM
TGI (NCI-H522 lung): > 100 µM
TGI (RPMI-8226 leukemia): > 100 µM
TGI (HOP-92 NSCLC): > 100 µM
TGI (SF-268 CNS): > 100 µM
TGI (RXF 393 renal): > 100 µM
TGI (SN12C renal): > 100 µM

CCC(C)CCOC(=O)c1ccc(N=Cc2ccc(C=Nc3ccc(C(=O)OCCC(C)CC)cc3)cc2)cc1 (stereo not drawn)
TGI (A549 NSCLC): > 100 µM
TGI (SW-620 colon): > 100 µM
TGI (NCI-H522 lung): > 100 µM
TGI (RPMI-8226 leukemia): > 100 µM
TGI (HOP-92 NSCLC): > 100 µM
TGI (HCT-116 colon): > 100 µM
TGI (SF-268 CNS): > 100 µM
TGI (RXF 393 renal): > 100 µM
TGI (SN12C renal): > 100 µM

O=C(N/C(=C\c1ccc(Cl)cc1)c1nc2ccccc2[nH]1)c1ccccc1
TGI (A549 NSCLC): 56.1 µM
TGI (SW-620 colon): 64 µM
TGI (NCI-H522 lung): 30.7 µM
TGI (RPMI-8226 leukemia): 42.6 µM
TGI (HOP-92 NSCLC): 33.6 µM
TGI (HCT-116 colon): 29.1 µM
TGI (SF-268 CNS): 38.5 µM
TGI (RXF 393 renal): 42.7 µM
TGI (SN12C renal): 49.2 µM

Cc1cc(NCCCCCCCCNc2cc(C)nc3cc(N)ccc23)c2ccc(N)cc2n1
TGI (A549 NSCLC): > 100 µM
TGI (NCI-H522 lung): 30.8 µM
TGI (RPMI-8226 leukemia): > 100 µM
TGI (SF-268 CNS): > 100 µM
TGI (RXF 393 renal): > 100 µM
TGI (SN12C renal): > 100 µM

O=C(Oc1cccc2cccnc12)c1cc2c(cc1Cl)SC(N(c1ccc(F)cc1)S(=O)(=O)c1ccc(Br)s1)=NS2(=O)=O
GI50 (A549 NSCLC): 27.1 µM
TGI (A549 NSCLC): > 100 µM
GI50 (SW-620 colon): 25.3 µM
TGI (SW-620 colon): > 100 µM
GI50 (NCI-H522 lung): 19.6 µM
TGI (NCI-H522 lung): 48.3 µM
GI50 (RPMI-8226 leukemia): 28.6 µM
TGI (RPMI-8226 leukemia): 96.3 µM
GI50 (HOP-92 NSCLC): 22.5 µM
TGI (HOP-92 NSCLC): 48.5 µM
GI50 (HCT-116 colon): 19.3 µM
TGI (HCT-116 colon): 55 µM
GI50 (SF-268 CNS): 35.7 µM
TGI (SF-268 CNS): > 100 µM
GI50 (NCI/ADR-RES ovarian): 18.2 µM
TGI (NCI/ADR-RES ovarian): 66.4 µM
GI50 (SN12C renal): 24.9 µM
TGI (SN12C renal): > 100 µM

CC(C)(O)[C@@H]1CC[C@@]2(C)CCCC(O)C2(O)C1 (stereo partly drawn)
TGI (A549 NSCLC): > 100 µM
TGI (SW-620 colon): > 100 µM
TGI (NCI-H522 lung): > 100 µM
TGI (RPMI-8226 leukemia): > 100 µM
TGI (HOP-92 NSCLC): > 100 µM
TGI (HCT-116 colon): > 100 µM
TGI (SF-268 CNS): > 100 µM
TGI (SN12C renal): > 100 µM

C[C@@H](NC1CCCC[C@H]1O)c1ccccc1 (stereo partly drawn)
TGI (A549 NSCLC): > 100 µM
TGI (SW-620 colon): > 100 µM
TGI (NCI-H522 lung): > 100 µM
TGI (RPMI-8226 leukemia): > 100 µM
TGI (HOP-92 NSCLC): > 100 µM
TGI (HCT-116 colon): > 100 µM
TGI (SF-268 CNS): > 100 µM
TGI (RXF 393 renal): > 100 µM
TGI (SN12C renal): > 100 µM

N#CCCN(c1ccc(C=Nc2ccccc2)cc1)S(=O)(=O)c1ccccc1
TGI (A549 NSCLC): > 100 µM
TGI (SW-620 colon): > 100 µM
TGI (NCI-H522 lung): > 100 µM
TGI (RPMI-8226 leukemia): > 100 µM
TGI (HOP-92 NSCLC): > 100 µM
TGI (HCT-116 colon): > 100 µM
TGI (SF-268 CNS): > 100 µM
TGI (SN12C renal): > 100 µM

Nc1ncnc2c1ncn2[C@]1(CO)C=C(CO)C(O)C1O (stereo partly drawn)
TGI (A549 NSCLC): > 100 µM
TGI (SW-620 colon): > 100 µM
TGI (NCI-H522 lung): > 100 µM
TGI (RPMI-8226 leukemia): > 100 µM
TGI (HOP-92 NSCLC): > 100 µM
TGI (HCT-116 colon): > 100 µM
TGI (SF-268 CNS): > 100 µM
TGI (RXF 393 renal): > 100 µM
TGI (SN12C renal): > 100 µM

CC(=O)OCC1OC(n2cc(F)c(=O)[nH]c2=O)C(NC(=O)N(CCCl)N=O)C(OC(C)=O)C1OC(C)=O (stereo not drawn)
TGI (A549 NSCLC): > 100 µM
TGI (SW-620 colon): > 100 µM
TGI (NCI-H522 lung): > 100 µM
TGI (RPMI-8226 leukemia): > 100 µM
TGI (HOP-92 NSCLC): > 100 µM
TGI (HCT-116 colon): > 100 µM
TGI (SF-268 CNS): > 100 µM
TGI (SN12C renal): > 100 µM

C/C(=C1/N=C(c2cc([N+](=O)[O-])ccc2Cl)N(c2cccc(C)c2)C1=O)c1cc2ccccc2oc1=O
TGI (A549 NSCLC): > 100 µM
TGI (SW-620 colon): > 100 µM
TGI (NCI-H522 lung): > 100 µM
TGI (RPMI-8226 leukemia): 72 µM
TGI (HOP-92 NSCLC): > 100 µM
TGI (HCT-116 colon): > 100 µM
TGI (SF-268 CNS): > 100 µM
TGI (RXF 393 renal): > 100 µM
TGI (SN12C renal): > 100 µM

CCCCCN(CCCCC)C(=O)[C@@H](CCC(=O)O)NC(=O)c1cc2ccccc2[nH]1
TGI (A549 NSCLC): > 100 µM
TGI (SW-620 colon): > 100 µM
TGI (NCI-H522 lung): 39.7 µM
TGI (RPMI-8226 leukemia): 35.4 µM
TGI (HOP-92 NSCLC): 67.8 µM
TGI (HCT-116 colon): 34.2 µM
TGI (SF-268 CNS): 82.9 µM
TGI (RXF 393 renal): 25.6 µM
TGI (SN12C renal): > 100 µM

COC(=O)C(Cc1cc(OC)c(OC)c(OC)c1)C(=O)OC
TGI (A549 NSCLC): > 320 µM
TGI (SW-620 colon): > 320 µM
TGI (NCI-H522 lung): > 320 µM
TGI (RPMI-8226 leukemia): > 320 µM
TGI (HOP-92 NSCLC): > 320 µM
TGI (SF-268 CNS): > 320 µM
TGI (RXF 393 renal): > 320 µM
TGI (SN12C renal): > 320 µM

Cc1ccc(S(=O)(=O)OCCn2cnc3nc(NC(=O)c4ccccc4)[nH]c(=O)c32)cc1
TGI (A549 NSCLC): > 100 µM
TGI (SW-620 colon): > 100 µM
TGI (NCI-H522 lung): > 100 µM
TGI (RPMI-8226 leukemia): > 100 µM
TGI (HOP-92 NSCLC): > 100 µM
TGI (HCT-116 colon): > 100 µM
TGI (SF-268 CNS): > 100 µM
TGI (RXF 393 renal): > 100 µM
TGI (SN12C renal): > 100 µM

CCOC(=O)/C(=C/N1CCN(C(=O)c2ccco2)C1=S)C(=O)c1ccccc1
GI50 (A549 NSCLC): 11.6 µM
TGI (A549 NSCLC): 36.3 µM
GI50 (SW-620 colon): 7.93 µM
TGI (SW-620 colon): 24 µM
GI50 (RPMI-8226 leukemia): 12.4 µM
TGI (RPMI-8226 leukemia): > 50 µM
GI50 (HOP-92 NSCLC): 23 µM
TGI (HOP-92 NSCLC): > 50 µM
GI50 (HCT-116 colon): 8.93 µM
TGI (HCT-116 colon): 23.7 µM
GI50 (SF-268 CNS): 7.18 µM
TGI (SF-268 CNS): 19.9 µM
GI50 (SN12C renal): 8.1 µM
TGI (SN12C renal): 17.4 µM

O=C(/C=C/c1cc(Cl)cc(Cl)c1O)c1cccc(O)c1
TGI (A549 NSCLC): > 100 µM
TGI (SW-620 colon): > 100 µM
TGI (NCI-H522 lung): > 100 µM
TGI (RPMI-8226 leukemia): > 100 µM
TGI (HOP-92 NSCLC): 84.9 µM
TGI (HCT-116 colon): > 100 µM
TGI (SF-268 CNS): > 100 µM
TGI (RXF 393 renal): > 100 µM
TGI (SN12C renal): 27.7 µM

CN(C)C=Nc1ccn(CCO)c(=O)n1
TGI (A549 NSCLC): > 100 µM
TGI (SW-620 colon): > 100 µM
TGI (NCI-H522 lung): > 100 µM
TGI (HCT-116 colon): > 100 µM
TGI (SF-268 CNS): > 100 µM
TGI (RXF 393 renal): > 100 µM
TGI (SN12C renal): > 100 µM

O=C1CSCc2sccc21
TGI (A549 NSCLC): > 100 µM
TGI (SW-620 colon): > 100 µM
TGI (NCI-H522 lung): > 100 µM
TGI (HCT-116 colon): > 100 µM
TGI (SF-268 CNS): > 100 µM
TGI (RXF 393 renal): > 100 µM
TGI (NCI/ADR-RES ovarian): > 100 µM
TGI (SN12C renal): > 100 µM
